Experimental data taken from PMC6112376, “Comprehensive Analyses and Prioritization of Tox21 10K Chemicals Affecting Mitochondrial Function by in-Depth Mechanistic Studies” (Environmental Health Perspectives, 2018).
Like-named read-outs stand apart in the source and are kept apart here.

How the values were obtained:
[1] = tested on: HepG2 cells; assay: cells; settings: Homo sapiens; for IC50: HepG2, read-out: MMP assays IC50 (µM) HepG2; for Emax: HepG2, read-out: MMP assays efficacy (%) HepG2
[2] = tested on: rat primary hepatocytes
[3] = tested on: rat primary hepatocytes; assay: MMP assay in rat primary hepatocytes; settings: for IC50: Rattus norvegicus, Hepatocyte, read-out: MMP assays IC50 (µM) Rat Hepatocytes
[4] = tested on: HepG2 cells; settings: cited from earlier work; for IC50: read-out: MMP assays IC50 (µM) qHTS-HepG2

Compound	IC50 [1] [µM]	Emax [1] [%]	MMP assays efficacy (%) Rat Hepatocytes [2]	IC50 [3] [µM]	MMP assays efficacy (%) qHTS-HepG2 [4]	IC50 [4] [µM]	MMP assays IC50 (µM) Rat Hepatocytes [3]	MMP assays IC50 (µM) qHTS-HepG2 [4]
Nc1ccc2cc3ccccc3cc2c1 [Compound 2-Aminoanthracene]	3.55	73	-51±35%	0.18 ± 0.2	-72±12%	4.71 ± 1.92		
CCc1ccccc1O [Compound 2-Ethylphenol]	15.8	72	inactive		inactive		inactive	inactive
O=C1c2ccccc2C(=O)c2cc(O)ccc21 [Compound 2-Hydroxyanthraquinone]	7.08	120	-68±21%	17.3 ± 6.83	-124±4%	3.31 ± 1.38		
Oc1ccc2ccccc2c1 [Compound 2-Naphthalenol]	35.5	81	-56±17%	42.2 ± 19.8	-107±7%	50.1 ± 16		
O=[N+]([O-])c1ccc2c(c1)Cc1ccccc1-2 [Compound 2-Nitrofluorene]	50.1	41	-57±0%	38.1 ± 9.22	-53±5%	12.2 ± 0.86		
Oc1ccccc1-c1ccccc1 [Compound 2-Phenylphenol]	28.2	108	-75±20%	53.2 ± 4.32	-97±7%	17.9 ± 1.41		
Cc1ccc2cc3c(ccc4ccccc43)c3c2c1CC3 [Compound 3-Methylcholanthrene]	25.2	66	inactive		-74±19%	17.3 ± 13.2	inactive	
Oc1ccc(Cc2ccccc2)cc1 [Compound 4-Benzylphenol]	31.6	118	inactive		-124±22%	15.9 ± 3.38	inactive	
CC(C)(c1ccccc1)c1ccc(O)cc1 [Compound 4-Cumylphenol]	3.55	108	-77±17%	48 ± 11.6	-103±17%	3.7 ± 0.82		
CCCCCCCCCCCCc1ccc(O)cc1 [Compound 4-Dodecylphenol]	5.01	102	-53±17%	25.1 ± 21.8	-96±3%	3.18 ± 0.58		
O=[N+]([O-])c1ccc(Nc2ccccc2)cc1 [Compound 4-Nitro-N-phenylaniline]	8.91	94	-93±7%	23.9 ± 7.05	-99±15%	7.43 ± 6.54		
O=Nc1ccc(O)cc1 [Compound 4-Nitrosophenol]	15.8	61	inactive		-87±9%	4.71 ± 2.31	inactive	
Oc1ccc(Oc2ccccc2)cc1 [Compound 4-Phenoxyphenol]	47.6	104	inactive		-106±22%	28 ± 10.6	inactive	
O=[N+]([O-])c1ccc2c3c(cccc13)CC2 [Compound 5-Nitroacenaphthene]	56.2	50	-78±25%	24 ± 16.2	-82±23%	34.4 ± 20.4		
C[C@]12CCC(=O)C[C@@H]1CC[C@@H]1[C@@H]2CC[C@]2(C)[C@@H](O)CC[C@@H]12 [Compound 5alpha-Dihydrotestosterone]	17.3	45	inactive		-72±9%	13.3 ± 6.16	inactive	
O=[N+]([O-])c1c2ccccc2cc2ccccc12 [Compound 9-Nitroanthracene]	35.5	88	-74±29%	33 ± 4.21	-87±19%	21.4 ± 12.8		
C[C@]12CC[C@@H]3c4ccc(O)cc4CC[C@H]3[C@@H]1CC[C@H]2O [Compound 17alpha-Estradiol]	22.4	105	-64±3%	35.5	-106±11%	37.8 ± 13.9		

Compound	IC50 [1] [µM]	Emax [1] [%]	MMP assays efficacy (%) Rat Hepatocytes [2]	IC50 [3] [µM]	MMP assays efficacy (%) qHTS-HepG2 [4]	IC50 [4] [µM]	MMP assays IC50 (µM) Rat Hepatocytes [3]	MMP assays IC50 (µM) qHTS-HepG2 [4]
C#C[C@]1(O)CC[C@H]2[C@@H]3CCc4cc(O)ccc4[C@H]3CC[C@@]21C [Compound 17alpha-Ethinylestradiol]	15.5	107	-42±1%	18.4 ± 1.5	-95±9%	19.1 ± 5.99		
O=c1oc2ccccc2c(O)c1C1CCCc2ccccc21 (stereo not drawn) [Coumatetralyl]	35.5	124	-110±37%	13.8 ± 8.1	-144±2%	13.7 ± 4.84		
COc1cc(/C=C/C(=O)CC(=O)/C=C/c2ccc(O)c(OC)c2)ccc1O [Curcumin]	2.51	96	-116±37%	11.6 ± 9.87	-103±16%	1.31 ± 1.03		
O=C1c2cccc(O)c2C(=O)c2c(O)cccc21 [Danthron]	15.5	91	-40±18%	5.97 ± 5.35	-78±3%	4.66 ± 1.19		
O=C1CN(/N=C/c2ccc(-c3ccc([N+](=O)[O-])cc3)o2)C(O)=N1 [Dantrolene sodium]	3.46	73	-108±32%	15.5 ± 1.78	-85±8%	4.35 ± 1.73		
CC1(C)[C@H](C(=O)O[C@H](C#N)c2cccc(Oc3ccccc3)c2)[C@@H]1C=C(Br)Br [Deltamethrin]	50.1	93	-65±42%	39.8 ± 14.2	-75±5%	45.9 ± 17.9		
C[C@H]1O[C@@H](O[C@H]2CC[C@@]3(C)[C@H](CC[C@@H]4[C@@H]3C[C@@H](O)[C@]3(C)[C@@H](C5=CC(=O)OC5)CC[C@]43O)C2)C[C@H](O)[C@@H]1O[C@H]1C[C@H](O)[C@H](O[C@H]2C[C@H](O)[C@H](O[C@@H]3O[C@H](CO)[C@@H](O)[C@H](O)[C@H]3O)[C@@H](C)O2)[C@@H](C)O1 [Deslanoside]	0.44	97	inactive		-81±14%	1.84 ± 0.23	inactive	
C#C[C@]1(O)CC[C@H]2[C@@H]3CCC4=CCCC[C@@H]4[C@H]3C(=C)C[C@@]21CC [Desogestrel]	27.5	84	inactive		-125±21%	22.3 ± 2.11	inactive	
CN1C(=O)[C@@H](NC(=O)c2cc3ccccc3[nH]2)N=C(c2ccccc2)c2ccccc21 [Devazepide]	10.9	63	-50±14%	15.6 ± 7.19	-81±7%	12.5 ± 5.62		
CCCCC(=O)O[C@]1(C(=O)CO)[C@H](C)C[C@H]2[C@@H]3CCC4=CC(=O)C=C[C@]4(C)[C@@]3(F)[C@@H](O)C[C@@]21C [Dexamethasone valerate]	17.3	114	-66±25%	23.5 ± 5.67	-74±6%	12.1 ± 4.39		
CN(C)S(=O)(=O)N(SC(F)(Cl)Cl)c1ccccc1 [Dichlofluanid]	25.1	99	-59±33%	23 ± 29.5	-105±5%	5.24 ± 1.99		
Cl[Si](Cl)(c1ccccc1)c1ccccc1 [Dichlorodiphenylsilane]	22.4	109	inactive		-106±4%	13 ± 9.66	inactive	
OC(c1ccc(Cl)cc1)(c1ccc(Cl)cc1)C(Cl)(Cl)Cl [Dicofol]	8.91	101	-122±51%	24.6 ± 9.27	-98±4%	9.69 ± 3.51		
C(=NC1CCCCC1)=NC1CCCCC1 [Dicyclohexylcarbodiimide]	0.0178	39	inactive		-69±18%	0.3 ± 0.2	inactive	
C/C=C(/C(=C/C)c1ccc(O)cc1)c1ccc(O)cc1 [Dienestrol]	8.3	84	inactive		-98±10%	10.9 ± 1.88	inactive	
C[C@H]1O[C@@H](O[C@H]2[C@@H](O)C[C@H](O[C@H]3[C@@H](O)C[C@H](O[C@H]4CC[C@@]5(C)[C@H](CC[C@@H]6[C@@H]5CC[C@]5(C)[C@@H](C7=CC(=O)OC7)CC[C@]65O)C4)O[C@@H]3C)O[C@@H]2C)C[C@H](O)[C@@H]1O [Digitoxin]	0.06	97	inactive		-77±6%	0.16 ± 0.05	inactive	
